Test results taken from US9370537B2, “Compositions and methods for reducing inflammation” (Cerule, LLC, priority 2009, dated 2016).

Assay: Case report: menstrual cramps
Assay type: in vivo, human
Conditions: person, single dose
Protocol: The anti-inflammatory effect of the 1117 fraction is evidenced by the following: • 1. A person experienced moderate to severe muscle pain after exercising. The person was in otherwise good health, but would consume four Advil after playing tennis. […] A person in good health and with regular menstruation typically experienced a day during menstruation with moderate to severe menstrual cramps. On one occasion, the painful cramps were so severe that they were not relieved by 1 hour heat or 1000 mg Tylenol. […] The relief happened within 5-10 minutes after consumption, and lasted 8 hours. • 3. A person in good health experienced severe, throbbing muscle pain after a 1-hour session of deep tissue massage. The pain was relieved within 30 minutes after consuming a single dose of 500 mg the 1117 fraction.

**Q.** For `CC(=O)Nc1ccc(O)cc1` [Tylenol], which “effect on severe menstrual cramps and pain” value is on record?
**A.** not relieved
